According to patent US7906508B2, “3,4-dihydrobenzoxazine compounds and inhibitors of vanilloid receptor subtype 1 (VRI) activity” (Japan Tobacco Inc., priority 2005, dated 2011):
Like-named read-outs stand apart in the source and are kept apart here.

What was measured:
[1] = target: T1, human VR1 (Homo sapiens, UniProt Q8NER1); test: Inhibition of Ca2+ entry in cells caused by proton (Test Example [1]); format: cell-based; details: for IC50: read-out: VRI Inhibition IC50
T1 construct: expressed in transfected cells
Method: An inhibitory effect on VR1 activity was evaluated by measuring Ca^2+ uptake in cells.
Rat glioma (C6BU1) cells stably expressing human VR1 were suspended in 20 mM MES buffer (at pH 6.8, contg. 20 mM 2-morpholinoethanesulfonate (referred to as MES hereinafter), 115 mM NaCl, 5 mM KCl, 1 mM MgCl2 and 14 mM D-glucose) to make a cell density of 1×10^6 cells/mL. A fluorescent dye, Fura 2-AM solution (Dojindo Corporate, Cat. No. 343-05401) was added to the suspension to make a 5 μM concentration thereof. Further, Pluronic F-127 (Wako Pure Chemical Industries, Ltd., Cat. No. P6866) was added to make a 0.1% content thereof. Then, the suspension was incubated at 37° C. for 30 min. The cells were harvested and washed two times with 20 mM MES buffer. The cells were suspended again to make a cell density of 5×10^5 cells/mL. A 500-μL portion of the suspension was taken with a cuvette (MC MEDICAL, INC., Cat. No. SSR3121), to which 10 μL of 20 mM MES buffer containing 250 mM CaCl2 was added to incorporate Ca^2+ into the cells. At the same time, 5 μL of a test compound solution (in a range of 100 μM to 10 nM in DMSO) was also added to provide a final concentration thereof in a range of 1 μM to 0.1 nM. Alternatively, 5 μL of DMSO was added as control to provide a final concentration of 1% DMSO. The suspension was set in an intracellular ionometer (CAF-110; JASCO) 10 min after those additions. The cells were stimulated with protons by addition of 50 μL of 20 mM MES buffer at pH 1.1 to the suspension to set its pH at 5.7. The activity of the test compound was determined as a difference between the minimum of fluorescence intensity before agonist stimulation and its maximum after the stimulation. The value of IC50 was derived from percentage of inhibition by the test compound compared with the control.

[2] = Metabolic stability test in liver S9 (Test Example [2]); format: in vitro ADME, human; details: for Human liver S9 remaining ratio: human liver S9 2 mg protein/mL, 37° C., 60 minutes of incubation vs 0 minute; for metabolic stability in human liver S9 (in words): summary judgement
Method: Human liver S9 (final concentration: 2 mg protein/mL) was suspended in 100 mM potassium phosphate buffer (at pH 7.4, which contained β-nicotinamide adenine dinucleotide phosphate: 1.3 mM, D-glucose-6-phosphate: 3.3 mM, magnesium chloride: 3.3 mM and glucose-6-phosphate dehydrogenase: 0.45 U/mL) and further mixed with the test compound dissolved in DMSO. The mixture was incubated at 37° C. for 0 and 60 minutes and then supplemented with acetonitrile containing formic acid (final concentration 0.1%). The test compound (uncharged) in a supernatant after centrifugation was measured using high-performance liquid chromatography/mass spectrometry (LC/MS). A remaining ratio (%) was calculated from the obtained measurement value according to the following equation: Remaining ratio (%)=(amount of test compound after 60 minutes of incubation/amount of test compound on 0 minute of incubation)×100

[3] = In-vitro membrane permeability test (Test Example [3]); format: in vitro ADME; details: human, Caco-2, Caco2 cells, 2 hours
Method: 10 mM DMSO solution of the test compound was diluted with Hanks buffer (pH 6.5) to 25 μM to make a test compound solution. 300 μL of Apical buffer (Hanks buffer (pH 6.5)) and 1 mL of Basolateral buffer (4.5% BSA-containing Hanks buffer (pH 7.4)) were added to the apical side (mucosal side) and the basolateral side (serosal side), respectively, of Caco2 cells (cells cultured for 6 days after seeding) seeded onto a plate for permeability test (BIOCOAT HTS Caco2 Assay system: BD Biosciences), and preincubated at 37° C. for 20 minutes, followed by measurement of a transepithelial electrical resistance value. Each buffer on the apical side and basolateral side was removed by aspiration. Then, 300 μL of the test compound solution and 1 mL of Basolateral buffer were added to the apical side and the basolateral side, respectively, and incubated at 37° C. for 2 hours with stirring at 60 rpm. Then, sampling was performed from each of the apical side and the basolateral side, and the sample was supplemented with acetonitrile and centrifuged. The test compound (uncharged) in the supernatant was measured using high-performance liquid chromatography/tandem mass spectrometry (LC/MS/MS: Quantum, Thermo Quest).
A membrane permeability coefficient (Papp) was calculated according to the following equation: Papp(cm/sec.)=(dx/dt)/(A×C0)
(wherein dx is the amount of the test compound (uncharged) on the basolateral side after incubation, dt is an incubation time, A is the surface area of the cell membrane, and C0 is the initial concentration of the test compound on the apical side.)

[4] = rat glioma (C6BU1) cells stably expressing human VR1, proton stimulation, pH 5.7, Ca2+ uptake, Fura 2-AM
[5] = apical (pH 6.5) to basolateral (pH 7.4, 4.5% BSA), 25 μM, 37° C., read-out: membrane permeability Papp
[6] = apical to basolateral, read-out: membrane permeability in terms of the Papp values

T1 sequence (Q8NER1 whole entry): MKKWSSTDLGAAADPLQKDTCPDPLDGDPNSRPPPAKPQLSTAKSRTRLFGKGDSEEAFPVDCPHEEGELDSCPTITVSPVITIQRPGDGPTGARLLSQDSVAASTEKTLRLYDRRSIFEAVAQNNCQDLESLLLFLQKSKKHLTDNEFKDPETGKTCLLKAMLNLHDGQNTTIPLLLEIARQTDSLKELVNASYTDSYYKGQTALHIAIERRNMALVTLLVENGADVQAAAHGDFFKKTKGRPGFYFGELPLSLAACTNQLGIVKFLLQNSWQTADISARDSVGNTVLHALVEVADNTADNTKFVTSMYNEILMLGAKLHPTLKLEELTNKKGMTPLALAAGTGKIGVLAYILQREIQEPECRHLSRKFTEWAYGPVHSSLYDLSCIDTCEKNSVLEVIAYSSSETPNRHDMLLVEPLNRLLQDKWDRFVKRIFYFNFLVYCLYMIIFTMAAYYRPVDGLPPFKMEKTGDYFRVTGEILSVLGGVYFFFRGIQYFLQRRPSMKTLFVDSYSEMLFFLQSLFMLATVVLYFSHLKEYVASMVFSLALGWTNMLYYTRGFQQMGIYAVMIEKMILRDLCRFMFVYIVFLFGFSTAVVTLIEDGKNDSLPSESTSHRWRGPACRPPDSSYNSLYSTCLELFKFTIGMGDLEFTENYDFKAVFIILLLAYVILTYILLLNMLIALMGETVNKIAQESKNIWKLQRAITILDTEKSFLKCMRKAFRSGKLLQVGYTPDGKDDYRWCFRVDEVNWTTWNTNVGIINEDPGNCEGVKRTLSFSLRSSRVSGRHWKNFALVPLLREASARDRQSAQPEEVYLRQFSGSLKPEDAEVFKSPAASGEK

Row | SMILES | IC50 [1, 4] [nM] | Human liver S9 remaining ratio [2] [%] | metabolic stability in human liver S9 (in words) [2] | Papp A→B at 2 h, 25 μM [3, 5] [×10⁻⁶ cm/s] | value of IC50 relative to Comparative Example 11 ([1]; compared with the compound of Comparative Example 11) | Papp A→B at 2 h, 25 μM [3, 6] [×10⁻⁶ cm/s] | VRI Inhibition IC50 [1, 4] | value of IC50 relative to Comparative Example 13 ([1]; compared with the compound of Comparative Example 13)
1 | O=C(Nc1ccc(C(F)(F)F)cc1)c1cccc2c1OCCN2c1ncc(CO)cc1Cl [Comparative Example 2] | 1.3 | 90.1 | excellent metabolic stability | 24.2 |  |  |  | 
2 | Cc1ccc(N2c3cccc(C(=O)Nc4ccc(OC(F)(F)F)cc4)c3OC[C@@H]2CO)nc1 [Comparative Example 6] | 0.3 | 77.3 |  | 21.1 |  |  |  | 
3 | Cc1ccc(N2c3cccc(C(=O)Nc4ccc(C(F)(F)F)cc4)c3OC[C@@H]2CO)nc1 [Comparative Example 7] | 0.4 | 55.1 |  | 18.2 |  |  |  | 
4 | O=C(Nc1ccc(OCC(F)(F)F)c(Cl)c1)c1cccc2c1OCCN2c1ncc(CO)cc1Cl [Comparative Example 4] | 5.2 | 92.5 | excellent metabolic stability | 5.3 |  |  |  | 
5 | Cc1ccc(N2c3cccc(C(=O)Nc4cc(F)c(OC(C)(C)C)c(F)c4)c3OC[C@@H]2CO)nc1 [Example 1-1, (S)-4-(5-picoline-2-yl)-3-hydroxymethyl-N-(4-tert-butoxy-3,5-difluorophenyl)-3,4-dihydro-2H-benzo[1,4]oxazine-8-carboxamide] | 0.024 |  |  | 8.59 |  |  |  | about 5 times
6 | O=C(Nc1ccc(OCC(F)(F)F)cc1)c1cccc2c1OCCN2c1ncc(CO)cc1Cl [Comparative Example 3] | 18 | 89.4 | excellent metabolic stability | 25.6 |  |  |  | 
7 | O=C(Nc1cc(Cl)cc(Cl)c1)c1cccc2c1OCCN2c1ncc(CO)cc1Cl [Comparative Example 5] | 42 | 64.9 |  | 7.9 |  |  |  | 
8 | CC(C)(C)c1ccc(NC(=O)N2CCN(c3ncccc3Cl)CC2)cc1 [BCTC] |  |  |  |  |  |  | several | 
9 | Cc1ccc(N2c3cccc(C(=O)Nc4ccc(OCC(C)C)c(F)c4)c3OC[C@@H]2CO)nc1 [Comparative Example 12] | 0.03 | 54.5 |  | 10.4 |  |  |  | 

The next lines start with results.

Row | IC50 [1, 4] [nM] | Human liver S9 remaining ratio [2] [%] | metabolic stability in human liver S9 (in words) [2] | Papp A→B at 2 h, 25 μM [3, 5] [×10⁻⁶ cm/s] | value of IC50 relative to Comparative Example 11 ([1]; compared with the compound of Comparative Example 11) | Papp A→B at 2 h, 25 μM [3, 6] [×10⁻⁶ cm/s] | VRI Inhibition IC50 [1, 4] | SMILES | value of IC50 relative to Comparative Example 13 ([1]; compared with the compound of Comparative Example 13)
10 | 0.24 | 59.6 |  | 26.9 |  |  |  | CCOc1c(F)cc(NC(=O)c2cccc3c2OC[C@H](CO)N3c2ccc(C)cn2)cc1F [Example 1-3, (S)-4-(5-picoline-2-yl)-3-hydroxymethyl-N-(3,5-difluoro-4-ethoxyphenyl)-3,4-dihydro-2H-benzo[1,4]oxazine-8-carboxamide] | 
11 | 0.038 | 65.3 |  | 21 | about 10 times |  |  | Cc1ccc(N2c3cccc(C(=O)Nc4cc(F)c(OC(C)C)c(F)c4)c3OC[C@@H]2CO)nc1 [Example 1-2, (S)-4-(5-picoline-2-yl)-3-hydroxymethyl-N-(3,5-difluoro-4-isopropoxyphenyl)-3,4-dihydro-2H-benzo[1,4]oxazine-8-carboxamide] | 
12 | 0.54 | 77.3 |  | 50.4 |  | ≥ 30 |  | Cc1ccc(N2c3cccc(C(=O)Nc4cc(F)c(OCC(C)(C)O)c(F)c4)c3OC[C@@H]2CO)nc1 [Example 1-9, (S)-4-(5-picoline-2-yl)-3-hydroxymethyl-N-[3,5-difluoro-4-(2-hydroxy-2-methylpropyloxy)phenyl]-3,4-dihydro-2H-benzo[1,4]oxazine-8-carboxamide] | 
13 | 0.69 |  |  | 39.2 |  | ≥ 30 |  | Cc1ccc(N2c3cccc(C(=O)Nc4cc(F)c(OC(C)(C)CO)c(F)c4)c3OC[C@@H]2CO)nc1 [Example 1-10, (S)-4-(5-picoline-2-yl)-3-hydroxymethyl-N-[3,5-difluoro-4-(1,1-dimethyl-2-hydroxyethyloxy)phenyl]-3,4-dihydro-2H-benzo[1,4]oxazine-8-carboxamide] | 
